Measurements taken from US12162872B2, “Cycloalkylurea derivative” (Sumitomo Pharma Co., Ltd., priority 2019, dated 2024).

molecular target: T1, Human orexin receptor type 2 (Homo sapiens, UniProt O43614); assay: Test 2: Evaluation of agonist activity for orexin receptor type 2 (aequorin luminescence, intracellular calcium mobilization in CHO cells); format: cell-based; details: relative percentage of luminescence for the luminescence (100%) of Orexin A (100 pM); CHO cells transiently expressing human orexin receptor type 2 and apoaequorin; Orexin A Lot. 671009
T1 construct: expressed in transfected cells; host or cells: CHO cells (transient expression)
T1 sequence (O43614 1-444): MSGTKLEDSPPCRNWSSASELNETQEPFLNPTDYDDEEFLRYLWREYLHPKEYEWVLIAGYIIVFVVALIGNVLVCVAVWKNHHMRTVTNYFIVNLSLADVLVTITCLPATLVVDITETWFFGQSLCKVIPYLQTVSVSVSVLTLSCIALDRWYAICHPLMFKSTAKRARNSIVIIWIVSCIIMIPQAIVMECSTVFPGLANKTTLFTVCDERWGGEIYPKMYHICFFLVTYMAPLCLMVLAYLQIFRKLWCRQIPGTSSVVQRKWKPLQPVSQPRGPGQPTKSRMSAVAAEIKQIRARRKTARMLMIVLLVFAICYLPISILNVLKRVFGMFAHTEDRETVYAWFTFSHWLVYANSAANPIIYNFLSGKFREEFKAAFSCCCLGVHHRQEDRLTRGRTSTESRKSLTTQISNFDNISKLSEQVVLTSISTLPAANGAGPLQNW
Method: Test 2: Evaluation of Agonist Activity for Orexin Receptor Type 2
Human orexin receptor type 2 and apoaequorin were transiently expressed in CHO cells, and the agonist activity was evaluated based on intracellular calcium mobilization with ligand stimulation. The CHO cells transiently-expressed human orexin receptor type 2 and apoaequorin were seeded on a 384-well plate by 2,000 cells/well, and then incubated for 16-22 hours. After the plate was returned to room temperature, Coelenterazine hcp (final concentration: 1 μM) was added to the plate, and the plate was allowed to stand at room temperature for 2 hours. And then, Orexin A (PEPTIDE INSTITUTE, INC., Lot. 671009) or each test compound was added to the plate, and the luminescence of the cells was measured with FDSS7000 (Hamamatsu Photonics K.K.), wherein Orexin A and each test compound were dissolved in DMSO (final concentration: 0.1%), and diluted with a buffer (Hanks, 20 mM HEPES, 0.1% BSA). The agonist activity of each test compound for orexin receptor type 2 was calculated as relative percentage of luminescence for the luminescence (100%) of Orexin A (100 pM).

Row | SMILES | agonist activity (%)
1 | CC(C)c1cn([C@H]2CCCC(F)(F)[C@@H]2NC(=O)N2CCC(C)(c3noc([C@@H]4C[C@@H]4F)n3)CC2)nn1 [Example 93, N-{(1R,6S)-2,2-difluoro-6-[4-(propan-2-yl)-1H-1,2,3-triazol-1-yl]cyclohexyl}-4-{5-[(1S,2S)-2-fluorocyclopropyl]-1,2,4-oxadiazol-3-yl}-4-methylpiperidine-1-carboxamide] | 365%
2 | CC(C)N1CCN(C[C@H]2CCCC(F)(F)[C@@H]2NC(=O)N2CCC(C)(c3noc([C@@H]4C[C@@H]4F)n3)CC2)CC1 [Example 117, N-[(1R,6R)-2,2-difluoro-6-{[4-(propan-2-yl)piperazin-1-yl]methyl}cyclohexyl]-4-{5-[(1S,2S)-2-fluorocyclopropyl]-1,2,4-oxadiazol-3-yl}-4-methylpiperidine-1-carboxamide] | 465%
3 | CN(C1CC1)[C@H]1CCN([C@H]2CCCC(F)(F)[C@@H]2NC(=O)N2CCC(C)(c3noc([C@@H]4C[C@@H]4F)n3)CC2)C1 [Example 115, N-[(1R,6S)-6-{(3S)-3-[cyclopropyl(methyl)amino]pyrrolidin-1-yl}-2,2-difluorocyclohexyl]-4-{5-[(1S,2S)-2-fluorocyclopropyl]-1,2,4-oxadiazol-3-yl}-4-methylpiperidine-1-carboxamide] | 403%
4 | CC(C)N(C)[C@H]1CCN([C@H]2CCCC(F)(F)[C@@H]2NC(=O)N2CCC(C)(c3noc(C4CC4)n3)CC2)C1 [Example 99, 4-(5-cyclopropyl-1,2,4-oxadiazol-3-yl)-N-[(1R,6S)-2,2-difluoro-6-{(3S)-3-[methyl(propan-2-yl)amino]pyrrolidin-1-yl}cyclohexyl]-4-methylpiperidine-1-carboxamide] | 499%
5 | CC1(CN2CC[C@H](O[C@H]3CCCC(F)(F)[C@@H]3NC(=O)N3CCC(C)(c4noc(C5CC5)n4)CC3)C2)CC1 [Example 126, 4-(5-cyclopropyl-1,2,4-oxadiazol-3-yl)-N-[(1R,6S)-2,2-difluoro-6-({(3S)-1-[(1-methylcyclopropyl)methyl]pyrrolidin-3-yl}oxy)cyclohexyl]-4-methylpiperidine-1-carboxamide] | 394%
6 | CC(C)c1nc([C@H]2CCCC(F)(F)[C@@H]2NC(=O)N2CCC(C)(c3noc(C4CC4)n3)CC2)no1 [Example 85, 4-(5-cyclopropyl-1,2,4-oxadiazol-3-yl)-N-{(1R,6S)-2,2-difluoro-6-[5-(propan-2-yl)-1,2,4-oxadiazol-3-yl]cyclohexyl}-4-methylpiperidine-1-carboxamide] | 360%
7 | CC(C)N1[C@@H]2CC[C@H]1C[C@H](O[C@H]1CCCC(F)(F)[C@@H]1NC(=O)N1CCC(C)(c3noc([C@@H]4C[C@@H]4F)n3)CC1)C2 [Example 98, N-[(1R,6S)-2,2-difluoro-6-{[(1R,3S,5S)-8-(propan-2-yl)-8-azabicyclo[3.2.1]octan-3-yl]oxy}cyclohexyl]-4-{5-[(1S,2S)-2-fluorocyclopropyl]-1,2,4-oxadiazol-3-yl}-4-methylpiperidine-1-carboxamide] | 271%
8 | CC(C)OC1CCN([C@H]2CCCC(F)(F)[C@@H]2NC(=O)N2CCC(C)(c3noc([C@@H]4C[C@@H]4F)n3)CC2)CC1 [Example 101, N-[(1R,6S)-2,2-difluoro-6-{4-[(propan-2-yl)oxy]piperidin-1-yl}cyclohexyl]-4-{5-[(1S,2S)-2-fluorocyclopropyl]-1,2,4-oxadiazol-3-yl}-4-methylpiperidine-1-carboxamide] | 326%
9 | CC(C)N1CCN([C@H]2CCC[C@H](F)[C@@H]2NC(=O)N2CCC(C)(c3noc([C@@H]4C[C@@H]4F)n3)CC2)CC1 [Example 156] | 323%

Second part, the compound after the results:

Row | agonist activity (%) | SMILES
10 | 363% | CC(C)CN1CC[C@H](O[C@H]2CCCC(F)(F)[C@@H]2NC(=O)N2CCC(C)(c3noc([C@@H]4C[C@@H]4F)n3)CC2)C1 [Example 107, N-[(1R,6S)-2,2-difluoro-6-{[(3S)-1-(2-methylpropyl)pyrrolidin-3-yl]oxy}cyclohexyl]-4-{5-[(1S,2S)-2-fluorocyclopropyl]-1,2,4-oxadiazol-3-yl}-4-methylpiperidine-1-carboxamide]
11 | 289% | CC(C)N1C[C@H]2CC[C@@H](C1)[C@@H]2O[C@H]1CCCC(F)(F)[C@@H]1NC(=O)N1CCC(C)(c2noc([C@@H]3C[C@@H]3F)n2)CC1 [Example 104, N-[(1R,6S)-2,2-difluoro-6-{[(1R,5S,8S)-3-(propan-2-yl)-3-azabicyclo[3.2.1]octan-8-yl]oxy}cyclohexyl]-4-{5-[(1S,2S)-2-fluorocyclopropyl]-1,2,4-oxadiazol-3-yl}-4-methylpiperidine-1-carboxamide]
12 | 226% | CC(C)c1nsc(O[C@H]2CCCC(F)(F)[C@@H]2NC(=O)N2CCC(C)(c3noc([C@@H]4C[C@@H]4F)n3)CC2)n1 [Example 87, N-[(1R,6S)-2,2-difluoro-6-{[3-(propan-2-yl)-1,2,4-thiadiazol-5-yl]oxy}cyclohexyl]-4-{5-[(1S,2S)-2-fluorocyclopropyl]-1,2,4-oxadiazol-3-yl}-4-methylpiperidine-1-carboxamide]
13 | 403% | CN(CC1CC1)[C@@H]1CCCN([C@H]2CCCC(F)(F)[C@@H]2NC(=O)N2CCC(C)(c3noc([C@@H]4C[C@@H]4F)n3)CC2)CC1 [Example 145, N-[(1R,6S)-6-{(4R)-4-[(cyclopropylmethyl)(methyl)amino]azepan-1-yl}-2,2-difluorocyclohexyl]-4-{5-[(1S,2S)-2-fluorocyclopropyl]-1,2,4-oxadiazol-3-yl}-4-methylpiperidine-1-carboxamide]
14 | 350% | CC(C)N1CCN(C(=O)O[C@H]2CCCC(F)(F)[C@@H]2NC(=O)N2CCC(C)(c3noc([C@@H]4C[C@@H]4F)n3)CC2)CC1 [Example 153, (1S,2R)-3,3-difluoro-2-[(4-{5-[(1S,2S)-2-fluorocyclopropyl]-1,2,4-oxadiazol-3-yl}-4-methylpiperidine-1-carbonyl)amino]cyclohexyl 4-(propan-2-yl)piperazine-1-carboxylate]
15 | 450% | Cc1ccc(C2(C)CCN(C(=O)N[C@@H]3[C@@H](O[C@H]4CCN(CC5(C)CC5)C4)CCCC3(F)F)CC2)cc1 [Example 130, N-[(1R,6S)-2,2-difluoro-6-({(3S)-1-[(1-methylcyclopropyl)methyl]pyrrolidin-3-yl}oxy)cyclohexyl]-4-methyl-4-(4-methylphenyl)piperidine-1-carboxamide]
16 | 374% | CC(C)N1CC[C@H](N[C@H]2CCCC(F)(F)[C@@H]2NC(=O)N2CCC(C)(c3noc([C@@H]4C[C@@H]4F)n3)CC2)C1 [Example 161, N-[(1R,6S)-2,2-Difluoro-6-{[(3S)-1-(propan-2-yl)pyrrolidin-3-yl]amino}cyclohexyl]-4-{5-[(1S,2S)-2-fluorocyclopropyl]-1,2,4-oxadiazol-3-yl}-4-methylpiperidine-1-carboxamide]
17 | 438% | CC(C)N(C)C1CCN([C@H]2CCCC(F)(F)[C@@H]2NC(=O)N2CCC(C)(c3noc([C@@H]4C[C@@H]4F)n3)CC2)CC1 [Example 114, N-[(1R,6S)-2,2-difluoro-6-{4-[methyl(propan-2-yl)amino]piperidin-1-yl}cyclohexyl]-4-{5-[(1S,2S)-2-fluorocyclopropyl]-1,2,4-oxadiazol-3-yl}-4-methylpiperidine-1-carboxamide]
18 | 410% | CCN(C)C1CCN([C@H]2CCCC(F)(F)[C@@H]2NC(=O)N2CCC(C)(c3noc([C@@H]4C[C@@H]4F)n3)CC2)CC1 [Example 160, N-[(1R,6S)-6-{4-[ethyl(methyl)amino]piperidin-1-yl}-2,2-difluorocyclohexyl]-4-{5-[(1S,2S)-2-fluorocyclopropyl]-1,2,4-oxadiazol-3-yl}-4-methylpiperidine-1-carboxamide]
19 | 112% | CC(C)n1cc(O[C@H]2CCCC(F)(F)[C@@H]2NC(=O)N2CCC(C)(c3noc(C4CC4)n3)CC2)cn1 [Example 90, 4-(5-cyclopropyl-1,2,4-oxadiazol-3-yl)-N-[(1R,6S)-2,2-difluoro-6-{[1-(propan-2-yl)-1H-pyrazol-4-yl]oxy}cyclohexyl]-4-methylpiperidine-1-carboxamide]

same assay, conditions: relative percentage of luminescence for the luminescence (100%) of Orexin A (100 pM); CHO cells transiently expressing human orexin receptor type 2 and apoaequorin; Orexin A Lot. 671009; 0.0001 µM

Row | SMILES | agonist activity (%)
20 | CN(CC1CC1)C1C[C@H]2CC[C@@H](C1)N2[C@H]1CCCC(F)(F)[C@@H]1NC(=O)N1CCC(C)(c2noc([C@@H]3C[C@@H]3F)n2)CC1 (stereo partly drawn) [Example 141, N-[(1R,6S)-6-{(1R,3R,5S)-3-[(cyclopropylmethyl)(methyl)amino]-8-azabicyclo[3.2.1]octan-8-yl}-2,2-difluorocyclohexyl]-4-{5-[(1S,2S)-2-fluorocyclopropyl]-1,2,4-oxadiazol-3-yl}-4-methylpiperidine-1-carboxamide] | 405%
